Common to all, as to assay: Glasshouse assay for herbicidal activity (pre- and post-emergence), percentage phytotoxicity
What all share (assay type): in vivo

The test system of one assay is Lolium perenne (LOLPE). As to conditions: Lolium perenne. The method in brief: (§1)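 Percent injury was estimated by eye on a scale where 0% means no damage and 100% complete damage. Ratings came 15 DAA post-emergence and 20 DAA pre-emergence, with plants held under 16 h light and 65% humidity at 24/18 °C or 20/16 °C day/night.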
In assay [1] the test system is Echinochloa crus-galli (ECHCG). The settings on record: Echinochloa crus-galli. The method in brief:
as §1

Assay [2] deals with Alopecurus myosuroides (ALOMY). The settings on record: Alopecurus myosuroides. The method in brief:
as §1

The subject of another assay is Avena fatua (AVEFA). As to conditions: Avena fatua. The method in brief: as §1
Where [3] appears, read: post-emergence, 360 h, Rate 250 g/ha, post-emergence, visual assessment 15 DAA, 100%=total damage, 0%=no damage, read-out: Post-emergence herbicidal activity (percentage phytotoxicity) LOLPE POST.
Where [4] appears, read: pre-emergence, 480 h, Rate 250 g/ha, pre-emergence, visual assessment 20 DAA, 100%=total damage, 0%=no damage, read-out: Pre-emergence herbicidal activity (percentage phytotoxicity) LOLPE PRE.
Where [5] appears, read: post-emergence, 360 h, Rate 250 g/ha, post-emergence, visual assessment 15 DAA, 100%=total damage, 0%=no damage, read-out: Post-emergence herbicidal activity (percentage phytotoxicity) ECHCG POST.
The mark [6] stands for this setting: pre-emergence, 480 h, Rate 250 g/ha, pre-emergence, visual assessment 20 DAA, 100%=total damage, 0%=no damage, read-out: Pre-emergence herbicidal activity (percentage phytotoxicity) ECHCG PRE.
Setting [7] is: post-emergence, 360 h, Rate 250 g/ha, post-emergence, visual assessment 15 DAA, 100%=total damage, 0%=no damage, read-out: Post-emergence herbicidal activity (percentage phytotoxicity) ALOMY POST.
Where [8] appears, read: pre-emergence, 480 h, Rate 250 g/ha, pre-emergence, visual assessment 20 DAA, 100%=total damage, 0%=no damage, read-out: Pre-emergence herbicidal activity (percentage phytotoxicity) ALOMY PRE.
Setting [9] is: post-emergence, 360 h, Rate 250 g/ha, post-emergence, visual assessment 15 DAA, 100%=total damage, 0%=no damage, read-out: Post-emergence herbicidal activity (percentage phytotoxicity) AVEFA POST.
The mark [10] stands for this setting: pre-emergence, 480 h, Rate 250 g/ha, pre-emergence, visual assessment 20 DAA, 100%=total damage, 0%=no damage, read-out: Pre-emergence herbicidal activity (percentage phytotoxicity) AVEFA PRE.
[11] abbreviates: post-emergence, 360 h, Rate 250 g/ha, post-emergence, assessed visually 15 DAA, 100%=total damage, 0%=no damage, read-out: Post-emergence herbicidal activity (percentage phytotoxicity) LOLPE POST.
Setting [12] is: pre-emergence, 480 h, Rate 250 g/ha, pre-emergence, assessed visually 20 DAA, 100%=total damage, 0%=no damage, read-out: Pre-emergence herbicidal activity (percentage phytotoxicity) LOLPE PRE.
[13] abbreviates: post-emergence, 360 h, Rate 250 g/ha, post-emergence, assessed visually 15 DAA, 100%=total damage, 0%=no damage, read-out: Post-emergence herbicidal activity (percentage phytotoxicity) ECHCG POST.
[14] abbreviates: pre-emergence, 480 h, Rate 250 g/ha, pre-emergence, assessed visually 20 DAA, 100%=total damage, 0%=no damage, read-out: Pre-emergence herbicidal activity (percentage phytotoxicity) ECHCG PRE.
[15] abbreviates: post-emergence, 360 h, Rate 250 g/ha, post-emergence, assessed visually 15 DAA, 100%=total damage, 0%=no damage, read-out: Post-emergence herbicidal activity (percentage phytotoxicity) ALOMY POST.
Setting [16] is: pre-emergence, 480 h, Rate 250 g/ha, pre-emergence, assessed visually 20 DAA, 100%=total damage, 0%=no damage, read-out: Pre-emergence herbicidal activity (percentage phytotoxicity) ALOMY PRE.
Where [17] appears, read: post-emergence, 360 h, Rate 250 g/ha, post-emergence, assessed visually 15 DAA, 100%=total damage, 0%=no damage, read-out: Post-emergence herbicidal activity (percentage phytotoxicity) AVEFA POST.
The mark [18] stands for this setting: pre-emergence, 480 h, Rate 250 g/ha, pre-emergence, assessed visually 20 DAA, 100%=total damage, 0%=no damage, read-out: Pre-emergence herbicidal activity (percentage phytotoxicity) AVEFA PRE.

Where two headings read alike, the source gives them in different places.

`CCOC(=O)OC1=C(c2c(C)cc(-c3ncc(Cl)cn3)cc2C)C(=O)C(CC(=O)NC(C)(C)C)C1` (centres unmarked) [Compound P4]: the pest or weed control at 250 g/ha amounted to 100% in the assay with Lolium perenne (LOLPE) (post-emergence, 360 h, post-emergence, 250 g/ha, 15 DAA, visual score (100%=total damage; 0%=no damage), read-out: LOLPE POST herbicidal activity (percentage phytotoxicity)); 100% in the assay with Lolium perenne (LOLPE) (pre-emergence, 480 h, pre-emergence, 250 g/ha, 20 DAA, visual score (100%=total damage; 0%=no damage), read-out: LOLPE PRE herbicidal activity (percentage phytotoxicity)); 100% in assay [1] (post-emergence, 360 h, post-emergence, 250 g/ha, 15 DAA, visual score (100%=total damage; 0%=no damage), read-out: ECHCG POST herbicidal activity (percentage phytotoxicity)); 100% in assay [1] (pre-emergence, 480 h, pre-emergence, 250 g/ha, 20 DAA, visual score (100%=total damage; 0%=no damage), read-out: ECHCG PRE herbicidal activity (percentage phytotoxicity)); 90% in assay [2] (post-emergence, 360 h, post-emergence, 250 g/ha, 15 DAA, visual score (100%=total damage; 0%=no damage), read-out: ALOMY POST herbicidal activity (percentage phytotoxicity)); 90% in assay [2] (pre-emergence, 480 h, pre-emergence, 250 g/ha, 20 DAA, visual score (100%=total damage; 0%=no damage), read-out: ALOMY PRE herbicidal activity (percentage phytotoxicity)). Further, the pest or weed control at 250 g/ha in the assay with Avena fatua (AVEFA) (post-emergence, 360 h, post-emergence, 250 g/ha, 15 DAA, visual score (100%=total damage; 0%=no damage), read-out: AVEFA POST herbicidal activity (percentage phytotoxicity)) was 100%; in the assay on Avena fatua (AVEFA) (pre-emergence, 480 h, pre-emergence, 250 g/ha, 20 DAA, visual score (100%=total damage; 0%=no damage), read-out: AVEFA PRE herbicidal activity (percentage phytotoxicity)), 90%.
For `CCN(C)C(=O)CC1CC(=O)C(c2c(C)cc(-c3ncc(Cl)cn3)cc2C)C1=O` (centres unmarked) [Compound B347], the pest or weed control at 250 g/ha (with Lolium perenne (LOLPE) (setting [3]); in the assay on Lolium perenne (LOLPE) (setting [4]); in assay [1] (setting [5]); in assay [1] (setting [6]); in assay [2] (setting [7]); in assay [2] (setting [8])) was 100% in each case. For the same molecule, the pest or weed control at 250 g/ha in the assay with Avena fatua (AVEFA) (setting [9]) and in the assay on Avena fatua (AVEFA) (setting [10]) was 100% each time.
`C=Cc1cc(-c2ncc(F)cn2)cc(C)c1C1C(=O)CC(CC(=O)NC(C)(C)C)C1=O` (centres unmarked) [Compound B404]: the pest or weed control at 250 g/ha was found to be 100% in the assay on Lolium perenne (LOLPE) (setting [3]); 80% in the assay with Lolium perenne (LOLPE) (setting [4]); 100% in assay [1] (setting [5]); 90% in assay [1] (setting [6]); 90% in assay [2] (setting [7]); 80% in assay [2] (setting [8]). For the same molecule, the pest or weed control at 250 g/ha amounted to 100% in the assay with Avena fatua (AVEFA) (setting [9]) and 70% in the assay with Avena fatua (AVEFA) (setting [10]).
As to `Cc1cc(C)c(C2C(=O)CC(C(C)C(=O)NCc3cccs3)C2=O)c(C)c1` (centres unmarked) [Compound A165], the pest or weed control at 250 g/ha was found to be 80% with Lolium perenne (LOLPE) (setting [11]); 70% with Lolium perenne (LOLPE) (setting [12]); 90% in assay [1] (setting [13]); 100% in assay [1] (setting [14]); 60% in assay [2] (setting [15]); 60% in assay [2] (setting [16]). Besides, the pest or weed control at 250 g/ha in the assay on Avena fatua (AVEFA) (setting [17]) is 80%; with Avena fatua (AVEFA) (setting [18]) it was 0%.
As for `Cc1cc(C)c(C2C(=O)CC(CC(=O)N(C)C(C)C)C2=O)c(C)c1` (centres unmarked) [Compound A161], the pest or weed control at 250 g/ha was 90% with Lolium perenne (LOLPE) (setting [11]); 100% in the assay with Lolium perenne (LOLPE) (setting [12]); 80% in assay [1] (setting [13]); 100% in assay [1] (setting [14]); 70% in assay [2] (setting [15]); 20% in assay [2] (setting [16]). The pest or weed control at 250 g/ha with Avena fatua (AVEFA) (setting [17]) and in the assay with Avena fatua (AVEFA) (setting [18]) was 30% in each case.
In the case of `Cc1cc(-c2ncc(Cl)cc2F)cc(C)c1C1C(=O)CC(CC(N)=O)C1=O` (centres unmarked) [Compound B53], the pest or weed control at 250 g/ha was 100% in the assay with Lolium perenne (LOLPE) (post-emergence, 360 h, 250 g/ha, post-emergence, 15 DAA, visual assessment (100%=total damage, 0%=no damage), read-out: Post-emergence herbicidal activity (percentage phytotoxicity) LOLPE POST); 90% in the assay on Lolium perenne (LOLPE) (pre-emergence, 480 h, 250 g/ha, pre-emergence, 20 DAA, visual assessment (100%=total damage, 0%=no damage), read-out: Pre-emergence herbicidal activity (percentage phytotoxicity) LOLPE PRE); 100% in assay [1] (post-emergence, 360 h, 250 g/ha, post-emergence, 15 DAA, visual assessment (100%=total damage, 0%=no damage), read-out: Post-emergence herbicidal activity (percentage phytotoxicity) ECHCG POST); 90% in assay [1] (pre-emergence, 480 h, 250 g/ha, pre-emergence, 20 DAA, visual assessment (100%=total damage, 0%=no damage), read-out: Pre-emergence herbicidal activity (percentage phytotoxicity) ECHCG PRE); 90% in assay [2] (post-emergence, 360 h, 250 g/ha, post-emergence, 15 DAA, visual assessment (100%=total damage, 0%=no damage), read-out: Post-emergence herbicidal activity (percentage phytotoxicity) ALOMY POST); 90% in assay [2] (pre-emergence, 480 h, 250 g/ha, pre-emergence, 20 DAA, visual assessment (100%=total damage, 0%=no damage), read-out: Pre-emergence herbicidal activity (percentage phytotoxicity) ALOMY PRE). For the same molecule, the pest or weed control at 250 g/ha with Avena fatua (AVEFA) (post-emergence, 360 h, 250 g/ha, post-emergence, 15 DAA, visual assessment (100%=total damage, 0%=no damage), read-out: Post-emergence herbicidal activity (percentage phytotoxicity) AVEFA POST) turned out to be 100%; in the assay on Avena fatua (AVEFA) (pre-emergence, 480 h, 250 g/ha, pre-emergence, 20 DAA, visual assessment (100%=total damage, 0%=no damage), read-out: Pre-emergence herbicidal activity (percentage phytotoxicity) AVEFA PRE), 100%.
For the molecule `C=C(C)CNC(=O)CC1CC(=O)C(c2c(C)cc(-c3ncc(C#N)cn3)cc2C)C1=O` (centres unmarked) [Compound B287], the pest or weed control at 250 g/ha in the assay on Lolium perenne (LOLPE) (post-emergence, 360 h, POST-emergence, rate 250 g/ha, visual score 15 DAA (100%=total damage, 0%=no damage), read-out: Post-emergence herbicidal activity (percentage phytotoxicity) LOLPE POST) came to 90%; in the assay on Lolium perenne (LOLPE) (pre-emergence, 480 h, PRE-emergence, rate 250 g/ha, visual score 20 DAA (100%=total damage, 0%=no damage), read-out: Pre-emergence herbicidal activity (percentage phytotoxicity) LOLPE PRE), 90%; in assay [1] (post-emergence, 360 h, POST-emergence, rate 250 g/ha, visual score 15 DAA (100%=total damage, 0%=no damage), read-out: Post-emergence herbicidal activity (percentage phytotoxicity) ECHCG POST), 100%; in assay [1] (pre-emergence, 480 h, PRE-emergence, rate 250 g/ha, visual score 20 DAA (100%=total damage, 0%=no damage), read-out: Pre-emergence herbicidal activity (percentage phytotoxicity) ECHCG PRE), 100%; in assay [2] (post-emergence, 360 h, POST-emergence, rate 250 g/ha, visual score 15 DAA (100%=total damage, 0%=no damage), read-out: Post-emergence herbicidal activity (percentage phytotoxicity) ALOMY POST) it was 90%; in assay [2] (pre-emergence, 480 h, PRE-emergence, rate 250 g/ha, visual score 20 DAA (100%=total damage, 0%=no damage), read-out: Pre-emergence herbicidal activity (percentage phytotoxicity) ALOMY PRE), 90%. Further, the pest or weed control at 250 g/ha amounted to 100% in the assay with Avena fatua (AVEFA) (post-emergence, 360 h, POST-emergence, rate 250 g/ha, visual score 15 DAA (100%=total damage, 0%=no damage), read-out: Post-emergence herbicidal activity (percentage phytotoxicity) AVEFA POST) and 90% in the assay on Avena fatua (AVEFA) (pre-emergence, 480 h, PRE-emergence, rate 250 g/ha, visual score 20 DAA (100%=total damage, 0%=no damage), read-out: Pre-emergence herbicidal activity (percentage phytotoxicity) AVEFA PRE).

The values are drawn from patent US10206394B2, “Herbicidal compounds” (Syngenta Participations AG, priority 2014, dated 2019).
